# Results from US20220323406A1, “METHODS AND COMPOSITIONS FOR DIFFERENTIATING STEM CELLS” (Massachusetts Institute of Technology, priority 2019, published 2022).
# Key:
# [1] = test system: ENR+CD organoids (ISC to Paneth cell differentiation); assay: Primary screen: basal (non-stimulated) lysozyme secretion LYZ.NS, 2.5-D 384-well ENR+CD organoid differentiation; assay type: cell-based, mouse
# Text: (§1) High-throughput screening.
# [2] = test system: ENR+CD organoids (ISC to Paneth cell differentiation); assay: Primary screen: CCh-stimulated lysozyme secretion LYZ.S, 2.5-D 384-well ENR+CD organoid differentiation; assay type: cell-based, mouse; settings: primary screen
# Text: as §1
# ENR+CD organoids = assay: Primary screen: ATP (CellTiter-Glo 3D, CTG) cell number/viability, 2.5-D 384-well ENR+CD organoids;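 further: compounds given at plating and again on day 3 over a 6-day differentiation from ENR+CV stem-cell-enriched precursors, ATP measured on day 6, plate median as control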
# [3] = primary screen, standard z score, dose 0.08 uM
# [4] = primary screen, standard z score, dose 0.40 uM
# [5] = primary screen, standard z score, dose 2.00 uM
# [6] = primary screen, standard z score, dose 10.00 uM
# [7] = primary screen, dose 0.08 uM, standard z score
# [8] = primary screen, dose 0.40 uM, standard z score
# [9] = primary screen, dose 2.00 uM, standard z score
# [10] = primary screen, dose 10.00 uM, standard z score
# [11] = primary screen; dose 0.08 uM; FC vs plate median
# [12] = primary screen; dose 0.40 uM; FC vs plate median
# [13] = primary screen; dose 2.00 uM; FC vs plate median
# [14] = primary screen; dose 10.00 uM; FC vs plate median
structure (smiles),measurement,setting,value
C=CC(=O)Nc1cccc(Nc2nc(Nc3ccc(Oc4ccnc(C(=O)NC)c4)cc3)ncc2F)c1 [CNX-774],Dose.FC.LYZ.NS,"[1]; primary screen, dose 0.08 uM",0.075 log2 fold change
same,Dose.FC.LYZ.NS,"[1]; primary screen, dose 0.40 uM",−0.008 log2 fold change
same,Dose.FC.LYZ.NS,"[1]; primary screen, dose 2.00 uM",0.158 log2 fold change
same,Dose.FC.LYZ.NS,"[1]; primary screen, dose 10.00 uM",−0.043 log2 fold change
same,Z.LYZ.NS,[1]; [3],0.655
same,Z.LYZ.NS,[1]; [4],−0.067
same,Z.LYZ.NS,[1]; [5],1.378
same,Z.LYZ.NS,[1]; [6],−0.376
same,Dose.FC.LYZ.S,[2]; dose 0.08 uM,0.014 log2 fold change
same,Dose.FC.LYZ.S,[2]; dose 0.40 uM,−0.027 log2 fold change
same,Dose.FC.LYZ.S,[2]; dose 2.00 uM,0.082 log2 fold change
same,Dose.FC.LYZ.S,[2]; dose 10.00 uM,−0.089 log2 fold change
same,Dose.FC.CTG,"ENR+CD organoids; primary screen, dose 0.08 uM",0.259 log2 fold change
same,Dose.FC.CTG,"ENR+CD organoids; primary screen, dose 0.40 uM",0.177 log2 fold change
same,Dose.FC.CTG,"ENR+CD organoids; primary screen, dose 2.00 uM",−0.109 log2 fold change
same,Dose.FC.CTG,"ENR+CD organoids; primary screen, dose 10.00 uM",−0.081 log2 fold change
same,Z.CTG,ENR+CD organoids; [3],0.619
same,Z.CTG,ENR+CD organoids; [4],0.422
same,Z.CTG,ENR+CD organoids; [5],−0.260
same,Z.CTG,ENR+CD organoids; [6],−0.194
NC(=O)c1cccc(-c2cc(Nc3ccc(OC(F)(F)F)cc3)ncn2)c1 [GNF-2],Dose.FC.LYZ.NS (log2 fold change),"[1]; primary screen, dose 0.08 uM",0.159
same,Z.LYZ.NS (standard z score),"[1]; primary screen, dose 0.08 uM",1.386
same,Dose.FC.LYZ.NS (log2 fold change),"[1]; primary screen, dose 0.40 uM",−0.024
same,Z.LYZ.NS (standard z score),"[1]; primary screen, dose 0.40 uM",−0.206
same,Dose.FC.LYZ.NS (log2 fold change),"[1]; primary screen, dose 2.00 uM",0.012
same,Z.LYZ.NS (standard z score),"[1]; primary screen, dose 2.00 uM",0.102
same,Dose.FC.LYZ.NS (log2 fold change),"[1]; primary screen, dose 10.00 uM",−0.033
same,Z.LYZ.NS (standard z score),"[1]; primary screen, dose 10.00 uM",−0.286
same,Dose.FC.LYZ.S (log2 fold change),[2]; dose 0.08 uM,0.121
same,Dose.FC.LYZ.S (log2 fold change),[2]; dose 0.40 uM,0.001
same,Dose.FC.LYZ.S (log2 fold change),[2]; dose 2.00 uM,0.046
same,Dose.FC.LYZ.S (log2 fold change),[2]; dose 10.00 uM,−0.015
same,Dose.FC.CTG (log2 fold change),"ENR+CD organoids; primary screen, dose 0.08 uM",0.157
same,Z.CTG (standard z score),"ENR+CD organoids; primary screen, dose 0.08 uM",0.376
same,Dose.FC.CTG (log2 fold change),"ENR+CD organoids; primary screen, dose 0.40 uM",0.090
same,Z.CTG (standard z score),"ENR+CD organoids; primary screen, dose 0.40 uM",0.214
same,Dose.FC.CTG (log2 fold change),"ENR+CD organoids; primary screen, dose 2.00 uM",0.074
same,Z.CTG (standard z score),"ENR+CD organoids; primary screen, dose 2.00 uM",0.176
same,Dose.FC.CTG (log2 fold change),"ENR+CD organoids; primary screen, dose 10.00 uM",0.100
same,Z.CTG (standard z score),"ENR+CD organoids; primary screen, dose 10.00 uM",0.240
C[C@]1(c2nc3c(C(N)=O)cccc3[nH]2)CCCN1 [Veliparib (ABT-888)],Dose.FC.LYZ.NS,"[1]; primary screen, dose 0.08 uM",0.075 log2 fold change
same,Z.LYZ.NS (standard z score),"[1]; primary screen, dose 0.08 uM",0.649
same,Dose.FC.LYZ.NS,"[1]; primary screen, dose 0.40 uM",0.139 log2 fold change
same,Z.LYZ.NS (standard z score),"[1]; primary screen, dose 0.40 uM",1.211
same,Dose.FC.LYZ.NS,"[1]; primary screen, dose 2.00 uM",0.023 log2 fold change
same,Z.LYZ.NS (standard z score),"[1]; primary screen, dose 2.00 uM",0.203
same,Dose.FC.LYZ.NS,"[1]; primary screen, dose 10.00 uM",−0.062 log2 fold change
same,Z.LYZ.NS (standard z score),"[1]; primary screen, dose 10.00 uM",−0.537
same,Dose.FC.LYZ.S,[2]; dose 0.08 uM,0.105 log2 fold change
same,Dose.FC.LYZ.S,[2]; dose 0.40 uM,0.179 log2 fold change
same,Dose.FC.LYZ.S,[2]; dose 2.00 uM,−0.016 log2 fold change
same,Dose.FC.LYZ.S,[2]; dose 10.00 uM,−0.136 log2 fold change
same,Dose.FC.CTG,"ENR+CD organoids; primary screen, dose 0.08 uM",0.128 log2 fold change
same,Z.CTG (standard z score),"ENR+CD organoids; primary screen, dose 0.08 uM",0.307
same,Dose.FC.CTG,"ENR+CD organoids; primary screen, dose 0.40 uM",0.055 log2 fold change
same,Z.CTG (standard z score),"ENR+CD organoids; primary screen, dose 0.40 uM",0.132
same,Dose.FC.CTG,"ENR+CD organoids; primary screen, dose 2.00 uM",−0.024 log2 fold change
same,Z.CTG (standard z score),"ENR+CD organoids; primary screen, dose 2.00 uM",−0.057
same,Dose.FC.CTG,"ENR+CD organoids; primary screen, dose 10.00 uM",−0.218 log2 fold change
same,Z.CTG (standard z score),"ENR+CD organoids; primary screen, dose 10.00 uM",−0.521
FC(F)(F)c1ccc(/C=C/c2nc(COc3ccc(CCCCn4ccnn4)cc3)co2)cc1 [Mubritinib (TAK 165)],Z.LYZ.NS,[1]; [7],−0.500
same,Z.LYZ.NS,[1]; [8],−1.687
same,Z.LYZ.NS,[1]; [9],−1.950
same,Z.LYZ.NS,[1]; [10],−2.092
same,Dose.FC.LYZ.NS,[1]; [11],−0.057 log2 fold change
same,Dose.FC.LYZ.NS,[1]; [12],−0.194 log2 fold change
same,Dose.FC.LYZ.NS,[1]; [13],−0.224 log2 fold change
same,Dose.FC.LYZ.NS,[1]; [14],−0.240 log2 fold change
same,Dose.FC.LYZ.S,"[2]; dose 0.08 uM, FC vs plate median",−0.119 log2 fold change
same,Dose.FC.LYZ.S,"[2]; dose 0.40 uM, FC vs plate median",−0.154 log2 fold change
same,Dose.FC.LYZ.S,"[2]; dose 2.00 uM, FC vs plate median",−0.299 log2 fold change
same,Dose.FC.LYZ.S,"[2]; dose 10.00 uM, FC vs plate median",−0.294 log2 fold change
same,Z.CTG,ENR+CD organoids; [7],−1.252
same,Z.CTG,ENR+CD organoids; [8],−0.812
same,Z.CTG,ENR+CD organoids; [9],−1.265
same,Z.CTG,ENR+CD organoids; [10],−1.240
same,Dose.FC.CTG,ENR+CD organoids; [11],−0.524 log2 fold change
same,Dose.FC.CTG,ENR+CD organoids; [12],−0.340 log2 fold change
same,Dose.FC.CTG,ENR+CD organoids; [13],−0.530 log2 fold change
same,Dose.FC.CTG,ENR+CD organoids; [14],−0.519 log2 fold change
O=C(O)CNC(=O)c1c(O)c2ccccc2n(Cc2ccccc2)c1=O [IOX2],Dose.FC.LYZ.NS (log2 fold change),"[1]; primary screen, dose 0.08 uM",0.029
same,Z.LYZ.NS (standard z score),"[1]; primary screen, dose 0.08 uM",0.254
same,Dose.FC.LYZ.NS (log2 fold change),"[1]; primary screen, dose 0.40 uM",0.028
same,Z.LYZ.NS (standard z score),"[1]; primary screen, dose 0.40 uM",0.246
same,Dose.FC.LYZ.NS (log2 fold change),"[1]; primary screen, dose 2.00 uM",0.043
same,Z.LYZ.NS (standard z score),"[1]; primary screen, dose 2.00 uM",0.376
same,Dose.FC.LYZ.NS (log2 fold change),"[1]; primary screen, dose 10.00 uM",−0.045
same,Z.LYZ.NS (standard z score),"[1]; primary screen, dose 10.00 uM",−0.388
same,Dose.FC.LYZ.S (log2 fold change),[2]; dose 0.08 uM,0.047
same,Dose.FC.LYZ.S (log2 fold change),[2]; dose 0.40 uM,0.071
same,Dose.FC.LYZ.S (log2 fold change),[2]; dose 2.00 uM,0.001
same,Dose.FC.LYZ.S (log2 fold change),[2]; dose 10.00 uM,−0.049
same,Dose.FC.CTG (log2 fold change),"ENR+CD organoids; primary screen, dose 0.08 uM",0.149
same,Z.CTG (standard z score),"ENR+CD organoids; primary screen, dose 0.08 uM",0.356
same,Dose.FC.CTG (log2 fold change),"ENR+CD organoids; primary screen, dose 0.40 uM",0.078
same,Z.CTG (standard z score),"ENR+CD organoids; primary screen, dose 0.40 uM",0.185
same,Dose.FC.CTG (log2 fold change),"ENR+CD organoids; primary screen, dose 2.00 uM",0.097
same,Z.CTG (standard z score),"ENR+CD organoids; primary screen, dose 2.00 uM",0.232
same,Dose.FC.CTG (log2 fold change),"ENR+CD organoids; primary screen, dose 10.00 uM",0.001
same,Z.CTG (standard z score),"ENR+CD organoids; primary screen, dose 10.00 uM",0.002
